Among the data in patent US10377747B2, “2-arylamino pyridine, pyrimidine or triazine derivatives, preparation method and use thereof” (Wuxi Shuangliang Biotechnology Co., Ltd., priority 2015, dated 2019) are GI50 values, retold here.

The test system of assay [1] is H1975 (non-small-cell lung cancer cells. EGFR L858K/T790M). Nature of the assay: Tumor cell proliferation and growth inhibition analysis (Cell Titer-Glo, 72 h), H1975. The format is cell-based. The note with it: Homo sapiens, NCI-H1975; H1975 cells, 72 h exposure, Cell Titer-Glo; read-out: H1975 GI50. The text has this: (§1) […] cell proliferation assay is described as follows.
(§2) Tumor cell proliferation and growth inhibition analysis: H1975 (non-small-cell lung cancer cells. EGFR L858K/T790M) and A431 (human epidermal cancer cells, EGFR wild type) cells were commercially available from the ATCC cell bank. […] The growth medium for A431 cells was DMEM (GIBCO, 11995-065), 10% fetal bovine serum. The influence exerted by the compounds on the proliferation activity of tumor cells was detected by Cell Titer-Glo assay. Tumor cells were exposed to the treatment conditions for 72 h, and the cell density used in each experiment for each cell line was adjusted according to the 72 h cell growth curve. 10 concentration gradients and three-fold dilutions (0.5 nM-10 μM) were set for compounds to be tested, and 3 parallel controls were used for each concentration value.
(§3) Trypsin was used for digesting cells in the logrithmic growth phase to prepare cell suspension, which was counted by a Roche counter and appropriately diluted with complete medium to a final cell concentration of 1˜2×10^3 cell/mL. 384-well plates were seeded with cells, and 22.6 μL were seeded for each well. 3 parallels were set. The plates were incubated in an incubator with 5% CO2 at 37° C. overnight. The compounds were dissolved in DMSO to prepare […] mother liquor. […] 2 μL of compound solution was added into 18 μL of culture medium, and fully mixed. Then 2 μL of mixed solution of compound and culture medium was added into 18 μL of culture medium, and fully mixed. 2.4 μL of mixtures were added into a 384-well plates. […] After cultivation for 72 h, 24 μL of Cell Titer-Glo reagent was added. The contents were mixed on an orbital shaker for 2 min to induce cell lysis. The 384-well plates were incubated at room temperature for 10 min to stabilize the […] signal value. Data was read by Infinite® M1000 PRO (TECAN), and calculated with GraphPad Prism version 5.0. GI50 value was obtained by adjustment using a non-linear regression model of dose response curves.
(In ATP-based viability assays light output follows the ATP content of the culture.)

The subject of assay [2] is A431 (human epidermal cancer cells, EGFR wild type). Nature of the assay: Tumor cell proliferation and growth inhibition analysis (Cell Titer-Glo, 72 h), A431. The note with it: A-431, 72 h exposure. Format: cell-based.
Excerpt: as §1, §2, §3

Broadly, the GI50 is the concentration giving 50% growth inhibition.

Structures are written as SMILES.

As to `C=CC(=O)Nc1cc(Nc2nccc(-c3nn(C)c4ccsc34)n2)c(OC)cc1N(C)CCN(C)C` [Example 24, N-(2-((2-(dimethylamino)ethyl)(methyl)amino)-4-methoxy-5-((4-(1-methyl-1H-thieno[3,2-c]pyrazol-3-yl)pyrimidin-2-yl)amino)phenyl)acrylamide], the results for the GI50 in assay [1] and in assay [2] were 10.7 nM and 209 nM, respectively.
The corresponding values for `C=CC(=O)Nc1cc(Nc2nccc(-c3nn(C)c4ccsc34)n2)c(OC(F)F)cc1N(C)CCN(C)C` [Example 25] are 6.5 nM and 85.8 nM.
The corresponding values for `C=CC(=O)Nc1cc(Nc2nccc(-c3nn(C)c4ccsc34)n2)c(OC(F)F)cc1N1CCN(C)CC1` [Example 26, N-(4-(difluoromethoxy)-5-((4-(1-methyl-1H-thieno[3,2-c]pyrazol-3-yl)pyrimidin-2-yl)amino)-2-(4-methylpiperazin-1-yl)phenyl)acrylamide] are 296 nM and 1130 nM.
The corresponding values for `C=CC(=O)Nc1cc(Nc2nccc(-c3nn(C)c4ccsc34)n2)c(OC(F)F)cc1N1CC(N(C)C)C1` [Example 27, N-(4-(difluoromethoxy)-2-(3-(dimethylamino)azetidin-1-yl)-5-((4-(1-methyl-1H-thieno[3,2-c]pyrazol-3-yl)pyrimidin-2-yl)amino)phenyl)acrylamide] are 1100 nM and 2540 nM.
With `C=CC(=O)Nc1cc(Nc2nccc(-c3nn(C)c4ccsc34)n2)c(OC(F)F)cc1N1CCC(N(C)C)CC1` [Example 28], the GI50 in assay [1] came out at 261 nM; in assay [2] it was 5300 nM.
The corresponding values for `C=CC(=O)Nc1cc(Nc2nccc(-c3nn(C)c4ccsc34)n2)c(OC(F)F)cc1N1CC2(CCCN2C)C1` [Example 29, N-(4-(difluoromethoxy)-5-((4-(1-methyl-1H-thieno[3,2-c]pyrazol-3-yl)pyrimidin-2-yl)amino)-2-(5-methyl-2,5-diazaspiro[3.4]oct-2-yl)phenyl)acrylamide] are 60.3 nM and greater than 1000 nM.
In the same order, the values of `C=CC(=O)Nc1cc(Nc2nccc(-c3cn(C)c4cc(C)sc34)n2)c(OC)cc1N(C)CCN(C)C` [Example 30] are 21.5 nM and 943 nM.
In the same order, the values of `C=CC(=O)Nc1cc(Nc2nccc(-c3c(C)n(C)c4sc(C)cc34)n2)c(OC)cc1N(C)CCN(C)C` [Example 31, N-(2-((2-(dimethylamino)ethyl)(methyl)amino)-4-methoxy-5-((4-(2,5,6-trimethyl-thieno[2,3-b]pyrrol-4-yl)pyrimidin-2-yl)amino)phenyl)acrylamide] are 33.5 nM and 625 nM.
Take `C=CC(=O)Nc1cc(Nc2ncnc(-c3cccc4cc[nH]c34)n2)c(OC)cc1N(C)CCN(C)C` [Example 32, N-(5-((4-(H-indol-7-yl)-1,3,5-triazin-2-yl)amino)-2-((2-(dimethylamino)ethyl)(methyl)amino)-4-methoxyphenyl)acylamide]: the GI50 in assay [1] turned out to be 9.4 nM; in assay [2] it was 147 nM.
The corresponding values for `C=CC(=O)Nc1cc(Nc2ncnc(-c3cccc4cc[nH]c34)n2)c(OC(F)F)cc1N(C)CCN(C)C` [Example 33, N-(5-((4-(1H-indol-7-yl)-1,3,5-triazin-2-yl)amino)-4-(difluoromethoxy)-2-((2-(dimethylamino)ethyl)(methyl)amino)phenyl)acrylamide] are 9.8 nM and 100 nM.
`C=CC(=O)Nc1cc(Nc2ncnc(-c3cccc4cc[nH]c34)n2)c(OC)cc1N1CCN(C)CC1` [Example 34, N-(5-((4-(1H-indol-7-yl)-1,3,5-triazin-2-yl)amino)-4-methoxy-2-(4-methylpiperazin-1-yl)phenyl)acrylamide]: the GI50 worked out at 462 nM in assay [1] and 2570 nM in assay [2].
For the molecule `C=CC(=O)Nc1cc(Nc2ncnc(-c3cccc4cc[nH]c34)n2)c(OC)cc1N1CC(N(C)C)C1` [Example 35, N—(5-((4-(1H-indol-7-yl)-1,3,5-triazin-2-yl)amino)-2-(3-(dimethylamino)azetidin-1-yl)-4-methoxyphenyl)acylamide], the concentration for 50% growth inhibition (GI50) came out at 1560 nM in assay [1] and 3320 nM in assay [2].
